Test results taken from patent US8304417B2, “Crystalline forms of 4-(6-chloro-2,3-methylenedioxyanilino)-7-[2-(4-methylpiperazin-1-yl)ethoxy]-5-tetrahydropyran-4-yloxyquinazoline” (AstraZeneca AB, priority 2004, dated 2012).
“Also recorded” adds a separate entry of the source.

Columns and labels:
[1] = Solid-state form stability (storage, presence or absence of water); type: physicochemical
[2] = Hygroscopicity of the crystalline form (exposure to water vapour); type: physicochemical; settings: solid form, exposure to water vapour during storage

Row | Molecule | stability of the physical form [1] | hygroscopicity [2]
1 | 4-(6-chloro-2,3-methylenedioxyanilino)-7-[2-(4-methylpiperazin-1-yl)ethoxy]-5-tetrahydropyran-4-yloxyquinazoline sesquifumarate salt [AZD0530 sesquifumarate tetrahydrate] | of reasonable stability | 
2 | CN1CCN(CCOc2cc(OC3CCOCC3)c3c(Nc4c(Cl)ccc5c4OCO5)ncnc3c2)CC1.O=C(O)/C=C/C(=O)O.O=C(O)/C=C/C(=O)O [AZD0530 difumarate, 4-(6-chloro-2,3-methylenedioxyanilino)-7-[2-(4-methylpiperazin-1-yl)ethoxy]-5-tetrahydropyran-4-yloxyquinazoline difumarate salt] | does not readily change form during storage if exposed to water vapour | substantially non-hygroscopic
3 | CN1CCN(CCOc2cc(OC3CCOCC3)c3c(Nc4c(Cl)ccc5c4OCO5)ncnc3c2)CC1.O.O.O [AZD0530 trihydrate, 4-(6-chloro-2,3-methylenedioxyanilino)-7-[2-(4-methylpiperazin-1-yl)ethoxy]-5-tetrahydropyran-4-yloxyquinazoline trihydrate] | stable in the presence of water | 
4 | CN1CCN(CCOc2cc(OC3CCOCC3)c3c(Nc4c(Cl)ccc5c4OCO5)ncnc3c2)CC1 [anhydrous AZD0530, 4-(6-chloro-2,3-methylenedioxyanilino)-7-[2-(4-methylpiperazin-1-yl)ethoxy]-5-tetrahydropyran-4-yloxyquinazoline] | very stable in the absence of water; also recorded: prone to convert to AZD0530 trihydrate during storage if substantially anhydrous storage conditions are not maintained | 
